Test results from publication PMC3608401 (FEBS letters, 2013).

Tests used:
[1] = biological target: T1, protein from Thermoanaerobacter italicus (clade 1) (Thermoanaerobacter thermocopriae, UniProt D3T426); test: colorimetric assay of α-galacturonidase activity; type: biochemical; details: cofactors NAD+, Mn2+, DTT as for GH4 enzymes
T1 sequence (D3T426 1-453): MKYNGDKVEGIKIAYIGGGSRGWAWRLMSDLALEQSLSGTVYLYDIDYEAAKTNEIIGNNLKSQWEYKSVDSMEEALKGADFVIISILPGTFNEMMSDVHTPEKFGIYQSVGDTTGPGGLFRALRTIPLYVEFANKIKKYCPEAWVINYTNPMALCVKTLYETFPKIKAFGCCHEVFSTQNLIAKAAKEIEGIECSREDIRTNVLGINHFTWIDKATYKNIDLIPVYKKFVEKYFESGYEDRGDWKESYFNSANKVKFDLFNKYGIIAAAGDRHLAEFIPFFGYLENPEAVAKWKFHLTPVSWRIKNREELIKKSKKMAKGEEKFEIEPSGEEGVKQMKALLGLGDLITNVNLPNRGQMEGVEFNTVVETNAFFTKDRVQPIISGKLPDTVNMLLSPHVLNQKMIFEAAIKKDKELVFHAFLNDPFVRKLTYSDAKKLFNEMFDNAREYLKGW

[2] = biological target: T2, Clostridium phytofermentans Cphy3396 (clade 3) (Lachnoclostridium phytofermentans, UniProt A9KTB9); test: colorimetric assay of α-galacturonidase activity; type: biochemical; details: cofactors NAD+, Mn2+, DTT as for GH4 enzymes
T2 sequence (A9KTB9 1-466): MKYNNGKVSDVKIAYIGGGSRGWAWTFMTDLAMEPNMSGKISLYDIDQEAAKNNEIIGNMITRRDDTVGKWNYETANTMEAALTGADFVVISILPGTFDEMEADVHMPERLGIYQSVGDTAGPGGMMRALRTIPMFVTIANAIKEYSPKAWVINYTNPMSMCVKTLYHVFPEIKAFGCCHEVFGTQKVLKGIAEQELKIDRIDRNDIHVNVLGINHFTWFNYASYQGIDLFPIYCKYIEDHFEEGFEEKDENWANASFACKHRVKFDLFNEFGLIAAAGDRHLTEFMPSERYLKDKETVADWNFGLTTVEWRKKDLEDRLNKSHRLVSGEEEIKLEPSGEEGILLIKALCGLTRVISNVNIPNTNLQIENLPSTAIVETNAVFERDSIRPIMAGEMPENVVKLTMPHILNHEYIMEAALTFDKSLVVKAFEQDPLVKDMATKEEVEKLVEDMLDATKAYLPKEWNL

[3] = substrate: O=C(O)[C@H]1O[C@H](Oc2ccc([N+](=O)[O-])cc2)[C@H](O)[C@@H](O)[C@H]1O; test: discontinuous colorimetric assay, p-nitrophenol release; type: biochemical, Bacillus subtilis; details: 25 mM Tris-HCl pH 7.5, 0.1 mM NAD+, 1 mM MnCl2, 5 mM DTT, ~35-38 °C

In the case of `O=C(O)[C@H]1O[C@H](Oc2ccc([N+](=O)[O-])cc2)[C@H](O)[C@@H](O)[C@H]1O` [pNPαGalUA], the “colorimetric assay of α-galacturonidase activity” value [1] is reported as “pNPαGalUA served as substrate in all assays of protein activity” and the “colorimetric assay of α-galacturonidase activity” value [2] is reported as “pNPαGalUA served as substrate in all assays of protein activity”.

B1: LplD (LplDhis6) (Bacillus subtilis subsp. subtilis str. 168) (protein)
chain: MFHISTLDQIKIAYIGGGSQGWARSLMSDLSIDERMSGTVALYDLDFEAAQKNEVIGNHSGNGRWRYEAVSTLKKALSAADIVIISILPGSLDDMEVDVHLPERCGIYQSVGDTVGPGGIIRGLRAVPIFAEIARAIRDYAPESWVINYTNPMSVCTRVLYKVFPGIKAIGCCHEVFGTQKLLAEMVTERLGIEVPRREDIRVNVLGINHFTWITKASYRHIDLLPIFREFSAHYGESGYELEGECWRDSVFCSAHRVAFDLFETYGAIPAAGDRHLAEFLPGPYLKQPEVWKFHLTPISFRKQDRAEKRQETERLIVQQRGVAEKASGEEGVNIIAALLGLGELVTNVNMPNQGQVLNLPIQAIVETNAFITRNRVQPILSGALPKGVEMLAARHISNQEAVADAGLTKDTGLAFQAFLNDPLVQIDRSDAEQLFNDMLQCIMQS
B1 was tested, and the Km [3] was 0.62 ± 0.11 µM and the kcat [3] was 3.6 s⁻¹.
